Series [1] in a line: storage stability (glucose sensitivity after storage). It is filed as physicochemical. The note with it: storage for 26 days at 40 degrees Celsius.
Series [2] can be described thus: solubility at room temperature. It is filed as physicochemical. An excerpt: Compound A is an orange amorphous solid, soluble in base and neutral phosphate buffer at room temperature. Compound A has the following beneficial electrochemical characteristics: • E0=0.086V vs Ag/AgCl (0.1M KCl) • kcat=900 s^−1 where E0 is the formal redox potential vs Ag/AgCl (compare to 0.25V for ferricyanide) and kcat is the rate constant for homogeneous electron transfer between the mediator (i.e., Compound A) and enzyme cofactor FAD. It is noted that E0 for ferricyanide is 0.25V and kcat for ferricyanide is 230 s^−1. Compound A has both an E0 that is beneficially lower than that of ferricyanide (and thus less is less susceptible to interferents) and a kcat that is beneficially higher than that of ferricyanide.
Compound B is an orange amorphous solid, soluble in base and neutral phosphate buffer at room temperature. […] has the following beneficial electrochemical characteristics: • E0=0.016V vs Ag/AgCl (0.1M KCl) • kcat=100 s^−1 where E0 is the formal redox potential vs Ag/AgCl (compare to 0.25V for ferricyanide) and kcat is the rate constant for homogeneous electron transfer between the mediator (i.e., Compound A) and enzyme cofactor FAD. It is noted that E0 for ferricyanide is 0.25V and kcat for ferricyanide is 230 s^−1. […]

Like-named read-outs stand apart in the source and are kept apart here.

In the case of `O=C1C=C(SCCCS(=O)(=O)O)c2ccccc2C1=O` [Compound A, 1,2-naphthalenedione-4-(3-mercapto-1-propanesulfonic acid)], in series [1], the “reduction in glucose sensitivity after storage” value is “no reduction in glucose sensitivity”. For the same compound, the solubility entry in series [2] is “soluble”.
As to `O=C(O)CCSC1=CC(=O)C(=O)c2ccccc21` [Compound B, 1,2-naphthalenedione-4-(3-mercaptopropionic acid)], in series [1], the “reduction in glucose sensitivity after storage” value is on record as “no reduction in glucose sensitivity”. Moreover, the solubility entry in series [2] (in base and neutral phosphate buffer at room temperature) is “soluble”.

(Values after patent US20160017399A1, “ELECTROCHEMICAL-BASED ANALYTICAL TEST STRIP WITH ENZYMATIC REAGENT LAYER CONTAINING A NAPHTHOQUINONE-BASED MEDIATOR AND FAD-GDH” (LifeScan Scotland Limited, priority 2014, published 2016).)
